Reference: patent US20220193185A1, “COMBINATION OF SYNTHETIC PEPTIDES WITH AFFINITY TO THE TGF-ß RECEPTOR AND WITH AFFINITY TO THE IL-10 RECEPTOR, PHARMACEUTICAL COMPOSITION AND THEIR USE AS IMMUNOMODULATORS IN THE TREATMENT OF AUTOIMMUNE, INFLAMMATORY OR ALLERGIC DISEASES” (Universidade Federal de Uberlândia, priority 2019, published 2022)

Experiments:
[1] = test system: TFGβRII/SMAD-dependent pathway; assay: HEK-blue-TGFβ reporter cells, SEAP production; format: cell-based; settings: 12 hours; tested at 0.1, 1, 10 and 100 μM
Method: After 12 hours of stimulation (FIG. 4A), all peptides were able to bind to the receptor.
The assay was performed in such a way that approximately 2.5×10^4 cells/well (100 μL) were treated with 100 μL of all synthetic peptides at different concentrations (100 μM, 10 μM, 1 μM and 0.1 μM) while rTGF-β1 ([…]) at 100 ng/ml was used as a positive control. After incubating the cells for 12, 24 and 48 hours at 37° C. in 5% CO2, […] of supernatant was transferred to a Greiner plate to which […] of Quanti-blue solution was added. The plate was incubated for 1 hour at 37° C. in 5% CO2 and the production of SEAP (secreted alkaline phosphatase) was detected at 655 nm. All tests were performed in triplicate.

TLR4 pathway = assay: HEK-Blue hTLR4 reporter cells, SEAP production (TGF-β1 mimetic peptides); format: cell-based; settings: peptide pretreatment 1 hour, then LPS 100 ng/mL; 12 hours
Method: Similar to the treatment using Jurkat cells, peptides in compositions with different concentrations were also tested in HEK cells to investigate their ability to interfere with the TLR4 pathway.
To ensure that the peptides could not induce any activation when tested alone (no pathway activation molecule) only the peptides were added into the cell line and SEAP production was measured after 12 hours of treatment (Figure not shown).
The assay was performed using HEK-Blue hTLR4 reporter cells (InvivoGen) to investigate the action of peptides in the TLR4 pathway. A total of 2.3×10^4 cells/well ([…]) was pretreated with […] of composition comprising at least one of the synthetic peptides at concentrations of 100 μM, 10 μM, 1 μM, and 0.1 μM for 1 hour at 37° C. ° C. in 5% CO2 followed by LPS stimulation at 100 ng/mL for 12 hours. The same stimuli were applied to cells pretreated with LPS at 100 ng/ml for 1 hour at 37° C. in 5% CO2, followed by stimuli with peptides at 100 μM, 10 μM, 1 μM and 0.1 μM for 12 hours. Stimuli were added in Quanti-blue medium and SEAP production was measured at 655 nm. As a control, peptides at the same concentrations were tested alone to investigate whether they could activate the TLR4 pathway and LPS was used as a positive control.

[2] = aggregation behavior in solution by Dynamic Light Scattering (DLS); format: physicochemical; settings: TGF-β1 mimetic peptides in solution
[3] = test system: TGF-β1 receptor on A549 cells; assay: ELISA on cells of the A549 line using anti-TGF-β1 antibody; format: binding, human
Method: The peptides described in this patent application were selected using the Phage Display (PD) methodology. The selection was performed by evaluating the ability of said peptides to recognize the TGF-β1 receptor on A549 cells, using an ELISA assay. MaxiSorp 96-well microtiter plates were coated with 1×10^6 cells diluted in PBS and incubated overnight at 4° C. Cells were blocked with 3% PBS-BSA for 1 h at 37° C., washed once with PBS and incubated with […] of each TGF-β1 mimetic peptide or 5 ng/ml of recombinant TGF-β1 for 1 h at 37° C. After washing, the plate was incubated for 1 h at 37° C. with anti-TGF-β1 antibody. The plate was washed and incubated with HRP-labeled anti-human IgG antibody for 1 h at 37° C. After washing, TMB substrate solution was added to the plate; the reaction was stopped by adding the 2N H2SO4 solution and read at 492 nm in a microplate reader.
To investigate whether the synthesized peptides could bind to cell receptors, an ELISA assay was performed on cells of the A549 line using commercial anti-TGF-β1 antibody.

NFkB pathway = assay: NFkB expression in Jurkat cells, luciferase (TGF-β1 mimetic peptides); format: cell-based, human; settings: peptide pretreatment 1 hour, then TNF-α, tested at 0.1-100 μM
Method: Two different cell treatments were performed using Jurkat cells to analyze NFkB expression after 12, 24 and 48 hours. In the first test, Jurkat cells were treated only with peptides (no pathway activating molecule) at different concentrations to analyze the ability of each peptide to induce NFkB expression (Figure not shown). None of the tested concentrations induced any type of pathway activation.
The assay was carried out in such a way that a total of 3×10^5 cells/well ([…]) was pretreated with […] of a composition comprising one of the synthetic peptides in concentrations of 100 μM, 10 μM, 1 μM, and 0.1 μM for 1 hour at 37° C. in 5% CO2, followed by stimulation with TNF-α (200 ng/ml) for 12, 24 and 48 hours. The same stimuli were applied to cells pretreated with TNF-α (200 ng/ml) for 1 hour at 37° C. in 5% CO2 followed by stimulation with peptides at 100 μM, 10 μM, 1 μM and 0.1 μM for 12, 24 and 48 hours. Then, […] of supernatant was transferred to a white plate and Quanti-Luc reagent was used to measure the luciferase product. As a control, the peptides were tested at the same concentrations, without any pathway activating molecule, to investigate whether they could activate the NFkB pathway. TNF-α (200 ng/mL) was used as a positive control and rIL-10 (0.4 ng/mL) as a negative control. […].

[4] = test system: rat basophilic leukemia cells transfected with the human FIϵRI IgE receptor (hRBL); assay: IgE-mediated release in hRBL cells sensitized with serum from patients allergic to birch pollen, Bet v 1; format: cell-based; settings: Pep 1-IL-10 at 1 μM; serum from seven birch pollen allergic donors
Method: The effect of IL-10 mimetic peptides on IgE-mediated release was examined using rat basophilic leukemia cells transfected with the human FIϵRI IgE receptor (hRBL). As an example, we selected as an example Pep 1-IL-10 to show the data obtained. The hRBL cells were sensitized with serum from seven patients allergic to birch pollen. Cells were stimulated with the antigen and its interaction with immobilized IgEs caused a release of b-hexosaminidase.
When cells were treated with a composition comprising Pep 1-IL-10 at 1 μM (FIG. 21A) or rIL10 (FIG. 21B), the amount of Bet v 1 needed to induce the same amount of degranulation was higher when compared to cells treated only with Bet vl (P<0.05). Amount of rBet v 1 (ng/mL) required to induce half the release of b-hexosaminidase using serum from seven birch pollen allergic donors after treatment with Pep 1-IL-10 (A) (P<0.05) and rIL10 (B)*P<0.05.

Pep 7-TGF-β1: synthetic peptide with affinity to the TGF-β receptor, SEQ ID N 07, free of disulfide bridges (HASTIASTLHSGGGS)
concentrations with statistically significant activation of the SMAD-dependent pathway (SEAP) [1]: 0.1 μM: 1 μM; 10 μM and 100 μM | concentrations with statistically significant reduction of TLR4 pathway activation (TLR4 pathway): 0.1 μM; 1 μM and 10 μM | hydrodynamic radius [2]: 2.94 nm | recognition of receptor-bound peptide by anti-TGF-β1 antibody compared to recombinant TGF-β1 [3]: recognized as statistically different | concentrations with statistically significant decrease of NFKB pathway activation vs TNF-α control (NFkB pathway; 24 hours): 1 µM and 100 µM | concentrations with statistically significant decrease of NFKB pathway activation vs TNF-α control (NFkB pathway; 48 hours): 1 µM

B1: rIL10: recombinant Interleukin-10, used as control (protein, UniProt P22301 19-178, looked up)
Interleukin-10: SPGQGTQSENSCTHFPGNLPNMLRDLRDAFSRVKTFFQMKDQLDNLLLKESLLEDFKGYLGCQALSEMIQFYLEEVMPQAENQDPDIKAHVNSLGENLKTLRLRLRRCHRFLPCENKSKAVEQVKNAFNKLQEKGIYKAMSEFDIFINYIEAYMTMKIRN
amount of Bet v 1 needed to induce the same amount of degranulation (half the release of b-hexosaminidase) vs Bet v 1 only [4]: higher
